pKd: −log10 of the molar value. Where a name gives a salt, the structure may show the parent alone. Read-outs that look alike come from different tables or passages of the source.
Assays:
mutant BRAF kinase = mutant BRAF kinase (Homo sapiens (Human), UniProt P15056, V600E); details: read-out: BRAF V600E Kd, class symbols
RAF kinases = RAF kinases (Homo sapiens (Human), UniProt P04049); details: read-out: RAF1 Kd, class symbols
Description: The liganded beads were blocked with excess biotin and washed with blocking buffer (SeaBlock (Pierce), 1% BSA, 0.05% Tween 20, 1 mM DTT) to remove unbound ligand and to reduce non-specific binding. […] Test compounds were prepared as 100× stocks in DMSO and rapidly diluted into the aqueous environment. DMSO was added to control assays lacking a test compound. Primary screen interactions were performed in polypropylene 384-well plates in a final volume of 34 μL, while Kd determinations were performed in polystyrene 96-well plates in a final volume of 135 μL. […] The kinase concentration in the eluates was measured by quantitative PCR. Each kinase was tested individually against each compound. KdS were determined using eleven serial threefold dilutions. A selectivity score, which is a quantitative measure of selectivity of a compound against a panel of enzymes, may be calculated for a compound by dividing the number of enzymes for which a compound meets a set criteria, (for example, a binding constant of 100 nM or less), by the total number of enzymes tested. […] (Note, for those compounds tested in a larger kinase panel, as indicated by an asterisk (*) next to the S35 score, the divisor is 321 (i.e. the larger panel contains 321 distinct kinases, excluding mutant variants.)).

[1] = test system: panel of 290 distinct kinases (321 in the larger panel), excluding mutant variants; details: kinase selectivity score, class symbols
wild type BRAF kinase = wild type BRAF kinase (Homo sapiens (Human), UniProt P15056); details: read-out: BRAF WT Kd, class symbols
[2] = value marked * (larger kinase panel)

Sequence of RAF kinases (P04049 whole entry): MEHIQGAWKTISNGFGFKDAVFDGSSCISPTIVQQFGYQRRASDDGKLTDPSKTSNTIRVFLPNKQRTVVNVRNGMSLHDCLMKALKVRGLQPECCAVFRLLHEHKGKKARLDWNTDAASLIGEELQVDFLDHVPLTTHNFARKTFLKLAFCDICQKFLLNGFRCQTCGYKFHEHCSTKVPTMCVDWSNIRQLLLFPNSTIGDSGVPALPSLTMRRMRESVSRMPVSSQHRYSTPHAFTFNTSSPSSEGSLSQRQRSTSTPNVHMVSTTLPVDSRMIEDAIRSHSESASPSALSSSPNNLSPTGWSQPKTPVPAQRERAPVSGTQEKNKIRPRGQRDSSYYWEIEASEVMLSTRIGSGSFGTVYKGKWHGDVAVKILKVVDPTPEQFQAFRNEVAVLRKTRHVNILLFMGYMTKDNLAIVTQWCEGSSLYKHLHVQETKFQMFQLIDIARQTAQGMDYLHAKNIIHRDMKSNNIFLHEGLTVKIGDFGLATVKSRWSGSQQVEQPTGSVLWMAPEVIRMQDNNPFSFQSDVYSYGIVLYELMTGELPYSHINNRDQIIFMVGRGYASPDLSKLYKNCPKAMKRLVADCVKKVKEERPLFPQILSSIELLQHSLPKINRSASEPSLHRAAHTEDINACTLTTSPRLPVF
Sequence of mutant BRAF kinase (P15056 whole entry V600E): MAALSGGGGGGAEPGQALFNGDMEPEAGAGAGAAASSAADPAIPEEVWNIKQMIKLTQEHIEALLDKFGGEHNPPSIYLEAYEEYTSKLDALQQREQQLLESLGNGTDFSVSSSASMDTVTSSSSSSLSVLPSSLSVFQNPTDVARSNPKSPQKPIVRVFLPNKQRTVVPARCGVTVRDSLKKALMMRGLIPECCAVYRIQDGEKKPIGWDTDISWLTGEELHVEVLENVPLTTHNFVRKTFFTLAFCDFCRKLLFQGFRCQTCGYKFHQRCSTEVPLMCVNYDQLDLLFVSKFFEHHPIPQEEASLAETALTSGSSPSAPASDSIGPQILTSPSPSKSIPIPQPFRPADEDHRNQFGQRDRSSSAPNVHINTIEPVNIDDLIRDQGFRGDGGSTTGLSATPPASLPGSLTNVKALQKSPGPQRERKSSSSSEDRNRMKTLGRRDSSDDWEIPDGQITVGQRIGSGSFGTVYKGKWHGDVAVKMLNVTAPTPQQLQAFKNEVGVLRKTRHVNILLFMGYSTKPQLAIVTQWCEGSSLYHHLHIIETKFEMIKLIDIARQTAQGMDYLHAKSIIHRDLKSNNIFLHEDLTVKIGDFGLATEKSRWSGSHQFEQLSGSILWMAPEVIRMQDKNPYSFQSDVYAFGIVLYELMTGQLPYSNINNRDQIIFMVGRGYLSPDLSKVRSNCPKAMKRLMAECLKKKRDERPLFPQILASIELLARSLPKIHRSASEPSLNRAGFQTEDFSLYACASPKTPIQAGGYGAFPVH
Sequence of wild type BRAF kinase (P15056 whole entry): as the sequence (P15056 whole entry V600E) above, with E600V counted along it

Row | SMILES | pKd (mutant BRAF kinase) | pKd (RAF kinases) | S35 ([1]; 290 distinct kinases) | pKd (wild type BRAF kinase) | S35 [1, 2]
1 | COc1cc2ncnc(Oc3cccc(NC(=O)Nc4cc(C(C)(C)C)on4)c3)c2cc1OCCN1CCCCC1 [Ex 16, 1-(5-tert-butylisoxazol-3-yl)-3-(3-(7-methoxy-6-(2-(piperidin-1-yl)ethoxy)quinazolin-4-yloxy)phenyl)urea] | > 6.60 | < 6.00 | C (0.20 < C ≦ 0.40) |  | 
2 | COc1cc2ncnc(Oc3cccc(NC(=O)Nc4cc(C(C)(C)C)on4)c3)c2cc1OCCCN1CCS(=O)(=O)CC1 [Ex 26, 1-(5-tert-butyl-isoxazol-3-yl)-3-(3-{6-[3-(1,1-dioxo-thiomorpholin-4-yl)-propoxy]-7-methoxy-quinazolin-4-yloxy}-phenyl)-urea] | > 6.60 | > 6.60 | D (D > 0.40) |  | 
3 | COc1cc2c(Oc3cccc(NC(=O)Nc4cc(C(C)(C)C)on4)c3)ncnc2cc1OCCCN1CCN(C)CC1 [Ex 28, 1-(5-tert-butylisoxazol-3-yl)-3-(3-(6-methoxy-7-(3-(4-methylpiperazin-1-yl)propoxy)quinazolin-4-yloxy)phenyl)urea] | > 6.60 | > 6.60 | D (D > 0.40) |  | 
4 | COc1ccc2ncnc(Sc3cccc(NC(=O)Nc4cc(C(C)(C)C)on4)c3)c2c1 [Ex 49, 1-(5-tert-butylisoxazol-3-yl)-3-(3-(6-methoxyquinazolin-4-ylthio)phenyl)urea] |  |  | C (0.20 < C ≦ 0.40) | < 6.00 | 
5 | COc1cc2ncnc(Sc3cccc(NC(=O)Nc4cc(C(C)(C)C)on4)c3)c2cc1OCCCN1CCN(CCO)CC1 [Ex 61, 1-(5-tert-butylisoxazol-3-yl)-3-(3-(6-(3-(4-(2-hydroxyethyl)piperazin-1-yl)propoxy)-7-methoxyquinazolin-4-ylthio)phenyl)urea] | > 6.60 | > 6.60 | D (D > 0.40) |  | 
6 | COc1cc2ncnc(Sc3cccc(NC(=O)Nc4cc(C(C)(C)C)on4)c3)c2cc1OCCCN1CCS(=O)(=O)CC1 [Ex 62, 1-(5-tert-butyl-isoxazol-3-yl)-3-(3-{6-[3-(1,1-dioxo-thiomorpholin-4-yl)-propoxy]-7-methoxy-quinazolin-4-ylsulfanyl}-phenyl)-urea] | > 6.60 | > 6.60 | C (0.20 < C ≦ 0.40) |  | 
7 | COc1cc2ncnc(Sc3cccc(NC(=O)Nc4cc(C(C)(C)C)on4)c3)c2cc1OCCCN1CCOCC1 [Ex 63, 1-(5-tert-butylisoxazol-3-yl)-3-(3-(7-methoxy-6-(3-morpholinopropoxy)quinazolin-4-ylthio)phenyl)urea] | > 6.60 | > 6.60 | C (0.20 < C ≦ 0.40) |  | 
8 | COc1cc2ncnc(Sc3cccc(NC(=O)Nc4cc(C(C)(C)C)on4)c3)c2cc1OCCN1CCOCC1 [Ex 70, 1-(5-tert-butylisoxazol-3-yl)-3-(3-(7-methoxy-6-(2-morpholinoethoxy)quinazolin-4-ylthio)phenyl)urea] | > 6.60 | > 6.60 | C (0.20 < C ≦ 0.40) |  | 
9 | COc1cc2c(Sc3cccc(NC(=O)Nc4cc(C(C)(C)C)on4)c3)ncnc2cc1OCCCN1CCC(CO)CC1 [Ex 74, 1-(5-tert-butylisoxazol-3-yl)-3-(3-(7-(3-(4-(hydroxymethyl)piperidin-1-yl)propoxy)-6-methoxyquinazolin-4-ylthio)phenyl)urea] | > 6.60 | > 6.60 | D (D > 0.40) |  | 
10 | COc1cc2c(Oc3cccc(NC(=O)Nc4cc(C(C)(C)C)on4)c3)ncnc2cc1O[C@H]1CCNC1 [Ex 96, (S)-1-(5-tert-butylisoxazol-3-yl)-3-(3-(6-methoxy-7-(pyrrolidin-3-yloxy)quinazolin-4-yloxy)phenyl)urea dihydrochloride] | > 6.60 | > 6.60 | C (0.20 < C ≦ 0.40) |  | 
11 | COc1cc2c(Oc3cccc(NC(=O)Nc4cc(C(C)(C)C)on4)c3)ncnc2cc1O[C@@H]1CCNC1 [Ex 98, (R)-1-(5-tert-butylisoxazol-3-yl)-3-(3-(6-methoxy-7-(pyrrolidin-3-yloxy)quinazolin-4-yloxy)phenyl)urea dihydrochloride] | > 6.60 | > 6.60 | C (0.20 < C ≦ 0.40) |  | 
12 | COc1cc2ncnc(Oc3cccc(NC(=O)Nc4cc(C(C)(C)C)on4)c3)c2cc1O [Ex 107, 1-(5-tert-butylisoxazol-3-yl)-3-(3-(6-hydroxy-7-methoxyquinazolin-4-yloxy)phenyl)urea] | > 6.60 | > 6.60 | C (0.20 < C ≦ 0.40) |  | 
13 | COc1cc2ncnc(Oc3cccc(NC(=O)Nc4cc(C(C)(C)C)on4)c3)c2cc1O[C@H]1CCN(CC(F)F)C1 [Ex 110, (S)-1-(5-tert-butylisoxazol-3-yl)-3-(3-(6-(1-(2,2-difluoroethyl)pyrrolidin-3-yloxy)-7-methoxyquinazolin-4-yloxy)phenyl)urea] | > 6.60 | > 6.60 | C (0.20 < C ≦ 0.40) |  | 
14 | COc1cc2ncnc(Oc3cccc(NC(=O)Nc4cc(C(C)(C)C)on4)c3)c2cc1OC[C@@H](O)CN1CCN(C)CC1 [Ex 111, (S)-1-(5-tert-butylisoxazol-3-yl)-3-(3-(6-(2-hydroxy-3-(4methylpiperazin-1-yl)propoxy)-7-methoxyquinazolin-4-yloxy)phenyl)urea] | > 6.60 | > 6.60 | D (D > 0.40) |  | 
15 | COc1cc2ncnc(Oc3cccc(NC(=O)Nc4cc(-c5ccccc5)on4)c3)c2cc1OC [Ex 113, 1-(3-(6,7-dimethoxyquinazolin-4-yloxy)phenyl)-3-(5-phenylisoxazol-3-yl)urea] |  | > 6.60 | B (0.10 < B ≦ 0.20) |  | 
16 | COc1cc2ncnc(Oc3cccc(NC(=O)Nc4cccc(C(C)(C)C)c4)c3)c2cc1OC [Ex 118, 1-(3-tert-butylphenyl)-3-(3-(6,7-dimethoxyquinazolin-4-yloxy)phenyl)urea] | > 6.60 | > 6.60 |  |  | C* (0.20 < C ≦ 0.40)
17 | COc1cc2ncnc(Sc3cccc(NC(=O)Nc4cccc(C(C)(C)C)c4)c3)c2cc1OC [Ex 120, 1-(3-tert-butylphenyl)-3-(3-(6,7-dimethoxyquinazolin-4-ylthio)phenyl)urea] | > 6.60 | > 6.60 |  |  | C* (0.20 < C ≦ 0.40)
18 | COc1cc2ncnc(Oc3cccc(NC(=O)Nc4cc(C(C)(C)CO)on4)c3)c2cc1OC [Ex 131, 1-(3-(6,7-dimethoxyquinazolin-4-yloxy)phenyl)-3-(5-(1-hydroxy-2-methylpropan-2-yl)isoxazol-3-yl)urea] | > 6.60 | > 6.60 | C (0.20 < C ≦ 0.40) |  | 
19 | COc1cc2ncnc(Oc3cccc(NC(=O)Nc4ccc(OC)c(C(F)(F)F)c4)c3)c2cc1OC [Ex 138, 1-(3-(6,7-dimethoxyquinazolin-4-yloxy)phenyl)-3-(4-methoxy-3-(trifluoromethyl)phenyl)urea] | > 6.60 | > 6.60 | B (0.10 < B ≦ 0.20) |  | 
20 | COc1cc2ncnc(Oc3cccc(NC(=O)Nc4cccc(C(C)C)c4)c3)c2cc1OC [Ex 144, 1-(3-(6,7-dimethoxyquinazolin-4-yloxy)phenyl)-3-(3-isopropylphenyl)urea] | > 6.60 | > 6.60 |  |  | C* (0.20 < C ≦ 0.40)
21 | COc1cc2ncnc(Oc3cccc(NC(=O)Nc4cc(C(C)(CF)CF)on4)c3)c2cc1OC [Ex 162, 1-[5-(1,3-difluoro-2-methylpropan-2-yl)isoxazol-3-yl]-3-[3-(6,7-dimethoxyquinazolin-4-yloxy)phenyl]urea] | > 6.60 | > 6.60 |  |  | C* (0.20 < C ≦ 0.40)
22 | COc1cc2ncnc(Oc3cccc(NC(=O)Nc4ccc(OC(F)(F)F)cc4)c3)c2cc1OC [Ex 177, 1-(3-(6,7-dimethoxyquinazolin-4-yloxy)phenyl)-3-(4-(trifluoromethoxy)phenyl)urea] | > 6.60 | > 6.60 | C (0.20 < C ≦ 0.40) |  | 
23 | COc1cc2ncnc(Oc3cccc(NC(=O)Nc4ccc(C(F)(F)F)cc4)c3)c2cc1OC [Ex 183, 1-(3-(6,7-dimethoxyquinazolin-4-yloxy)phenyl)-3-(4-(trifluoromethyl)phenyl)urea] | > 6.60 | > 6.60 |  |  | C* (0.20 < C ≦ 0.40)
24 | COc1cc2ncnc(Sc3cccc(NC(=O)Nc4cccc(C(F)(F)F)c4)c3)c2cc1OC [Ex 185, 1-(3-(6,7-dimethoxyquinazolin-4-ylthio)phenyl)-3-(3-(trifluoromethyl)phenyl)urea] | > 6.60 | > 6.60 |  |  | C* (0.20 < C ≦ 0.40)
25 | COc1cc2ncnc(Sc3cccc(NC(=O)Nc4cc(C(C)(C)F)no4)c3)c2cc1OC [Ex 187, 1-(3-(6,7-dimethoxyquinazolin-4-ylthio)phenyl)-3-(3-(2-fluoropropan-2-yl)isoxazol-5-yl)urea] | > 6.60 | > 6.60 |  |  | C* (0.20 < C ≦ 0.40)
26 | COc1cc2ncnc(Sc3cccc(NC(=O)Nc4cc(C(C)(CF)CF)on4)c3)c2cc1OC [Ex 191, 1-[5-(1,3-difluoro-2-methylpropan-2-yl)isoxazol-3-yl]-3-[3-(6,7-dimethoxyquinazolin-4-ylthio)phenyl]urea] | > 6.60 | > 6.60 |  |  | C* (0.20 < C ≦ 0.40)
27 | COCCOc1cc(NC(=O)Nc2cccc(Sc3ncnc4cc(OC)c(OC)cc34)c2)cc(C(F)(F)F)c1 [Ex 200, 1-(3-(6,7-dimethoxyquinazolin-4-ylthio)phenyl)-3-(3-(2-methoxyethoxy)-5-(trifluoromethyl)phenyl)urea] |  | < 6.00 | C (0.20 < C ≦ 0.40) |  | 
28 | COc1cc2ncnc(Sc3cccc(NC(=O)Nc4cc(C5CCCC5)on4)c3)c2cc1OC [Ex 201, 1-(5-Cyclopentylisoxazol-3-yl)-3-(3-(6,7-dimethoxyquinazolin-4-ylthio)phenyl)urea] | > 6.60 | > 6.60 |  |  | C* (0.20 < C ≦ 0.40)
